In ChEMBL document CHEMBL5661943, “ASAP - In vitro antiviral effect” (2024):
Several values for one entry are separate records, joined by “and”; a condition that tells them apart may be missing. Equal entries are not always repeated.

What was measured:
Zika virus [1] = test: Functional CPE-based assay to measure dose dependent changes in antiviral-drug inhibitory efficacy against Zika virus MR766 in Vero E6 miRFP670 cells (cotreated with P-gp inhibitor, CP100356). Cells are treated with antiviral candidates that are serially diluted. EC50 is reported via analysis of MTS assay as a readout of CPE. The assay has been performed by KU Leuven.; type: organism-based, Chlorocebus sabaeus, Vero C1008; details: for EC90: P-gp concentration 500 nM, P-gp inhibitor CP100356
Zika virus [2] = test: EC50 is reported via analysis of immunofluorescence staining. The assay has been performed by Icahn School of Medicine at Mount Sinai.; type: functional, organism-based, Chlorocebus sabaeus, VeroE6/TMPRSS2; details: for EC90: P-gp concentration 2 uM, P-gp inhibitor Elacidar
dengue virus type 2 [3] = test: Functional assay to measure dose dependent changes in antiviral-drug inhibitory efficacy against Dengue virus type 2 New Guinea C in Vero E6 miRFP670 cells (cotreated with P-gp inhibitor, CP100356). Cells are treated with antiviral candidates that are serially diluted, following infection, cells are fixed. EC50 is reported via analysis of fluorescence intensity using high-content imager. The …; type: organism-based, Chlorocebus sabaeus, Vero C1008; details: for EC90: P-gp concentration 500 nM, P-gp inhibitor CP100356
dengue virus type 2 [4] = test: Functional immunofluorescence assay to measure dose dependent changes in antiviral-drug inhibitory efficacy against Dengue virus type 2 Thailand/16681/84 in Vero E6/TMPRSS2 cells (cotreated with P-gp inhibitor, Elacridar). Cells are treated with antiviral candidates that are serially diluted, following infection, cells are fixed. EC50 is reported via analysis of immunofluorescence staining. The assay has been performed by Icahn School of Medicine at Mount Sinai.; type: organism-based, Chlorocebus sabaeus, VeroE6/TMPRSS2; details: Dengue virus

## O=C(NCC(F)F)[C@H](Nc1ccc2c(c1)CNC2)c1cc(Cl)cc(C2CC2)c1
Zika virus [1]; Baseline response 0 %, EC90 CI (lower) 0 uM, EC90 CI (upper) 0 uM, Hill slope 19.422, Maximum measured 104.146 %, Maximum response 100 %, Minimum measured 1.001 %, R squared 0.972
  EC90: 3.54 µM
Zika virus [1]; Baseline response 0 %, EC90 CI (lower) 1.312 uM, EC90 CI (upper) 1.931 uM, Hill slope 6.18, Maximum measured 105.591 %, Maximum response 100 %, Minimum measured 3.511 %, R squared 0.974
  EC90: 1.59 µM
Zika virus [1]; Baseline response 0 %, EC90 CI (lower) 26.105 uM, EC90 CI (upper) 61.789 uM, Hill slope 1.533, Maximum measured 103.939 %, Maximum response 100 %, Minimum measured 1.936 %, R squared 0.959
  EC90: 40.2 µM
Zika virus [1]; vero c1008
  EC50: 9.58 µM and 3.16 µM and 1.11 µM
Zika virus [2]; Baseline response 0 %, Hill slope -0.396, Maximum measured 99.851 %, Maximum response 100 %, Minimum measured 40.832 %, R squared 0.557
  EC90: > 5.56 µM
Zika virus [2]; Baseline response 0 %, Hill slope -0.815, Maximum measured 101.881 %, Maximum response 50 %, Minimum measured 25.102 %, R squared 0.285
  EC90: > 5.56 µM
Zika virus [2]; Zika virus, VeroE6/TMPRSS2, Maximum measured 91.336 %, Minimum measured 34.975 %
  EC90: > 1.85 µM
Zika virus [2]; Zika virus, VeroE6/TMPRSS2, Baseline response 0 %, Hill slope -0.205, Maximum measured 120.59 %, Maximum response 100 %, Minimum measured 43.549 %, R squared 0.084
  EC90: > 5.56 µM
Dengue virus type 2 [3]; Dengue virus, Vero C1008
  EC50: > 50 µM
Dengue virus type 2 [3]; Dengue virus, Vero C1008, Maximum measured 140.556 %, Minimum measured 63.358 %
  EC90: > 50 µM
Dengue virus type 2 [3]; Dengue virus, Vero C1008, Maximum measured 143.73 %, Minimum measured 67.897 %
  EC90: > 25 µM
Dengue virus type 2 [3]; Dengue virus, Vero C1008, Baseline response 0 %, Hill slope -0.993, Maximum measured 109.944 %, Maximum response 100 %, Minimum measured 57.337 %, R squared 0.512
  EC90: > 50 µM
Dengue virus type 2 [3]; vero c1008
  EC50: > 25 µM
Dengue virus type 2 [4]; VeroE6/TMPRSS2
  EC50: > 50 µM
Dengue virus type 2 [4]; VeroE6/TMPRSS2, Maximum measured 212.671 %, Minimum measured 62.173 %, P-gp concentration 2 uM, P-gp inhibitor Elacidar
  EC90: > 50 µM

## Cc1cc(C(=O)Nc2ccc3c(c2)CNC3)c2cn[nH]c2c1
Zika virus [1]; Zika virus, Vero C1008
  EC50: 7.79 µM
Zika virus [1]; Zika virus, Vero C1008, Baseline response 0 %, EC90 CI (lower) 4.895 uM, EC90 CI (upper) 50.446 uM, Hill slope 3.132, Maximum measured 172.887 %, Maximum response 100 %, Minimum measured 3.006 %, R squared 0.777
  EC90: 15.7 µM
Zika virus [2]; Baseline response 0 %, Hill slope -2.011, Maximum measured 89.225 %, Maximum response 60 %, Minimum measured 14.739 %, R squared 0.55
  EC90: > 50 µM
Zika virus [2]; Zika virus, VeroE6/TMPRSS2, Baseline response 0 %, Hill slope -0.435, Maximum measured 146.607 %, Maximum response 100 %, Minimum measured 37.409 %, R squared 0.47
  EC90: > 50 µM
Zika virus [2]; veroe6/tmprss2
  EC50: 4.92 µM and 30 µM
Dengue virus type 2 [3]; Dengue virus, Vero C1008
  EC50: > 50 µM
Dengue virus type 2 [3]; Dengue virus, Vero C1008, Maximum measured 131.325 %, Minimum measured 92.066 %
  EC90: > 50 µM
Dengue virus type 2 [4]; VeroE6/TMPRSS2
  EC50: > 16.7 µM
Dengue virus type 2 [4]; VeroE6/TMPRSS2, Baseline response 0 %, Hill slope -0.131, Maximum measured 111.871 %, Maximum response 100 %, Minimum measured 74.867 %, P-gp concentration 2 uM, R squared 0.056, P-gp inhibitor Elacidar
  EC90: > 16.7 µM

## O=C(Nc1ccc2c(c1)CCNCC2)c1cc(Cl)cc2[nH]ncc12
Zika virus [1]; Zika virus, Vero C1008
  EC50: > 50 µM
Zika virus [1]; Zika virus, Vero C1008, Maximum measured -0.637 %, Minimum measured -2.713 %
  EC90: > 50 µM
Zika virus [2]; Zika virus, VeroE6/TMPRSS2
  EC50: > 50 µM
Zika virus [2]; Zika virus, VeroE6/TMPRSS2, Maximum measured 112.155 %, Minimum measured 46.888 %
  EC90: > 50 µM
Dengue virus type 2 [3]; Dengue virus, Vero C1008
  EC50: > 25 µM
Dengue virus type 2 [3]; Dengue virus, Vero C1008, Baseline response 0 %, Hill slope -0.681, Maximum measured 107.454 %, Maximum response 100 %, Minimum measured 77.093 %, R squared 0.152
  EC90: > 25 µM
Dengue virus type 2 [4]; VeroE6/TMPRSS2
  EC50: > 50 µM
  EC90: > 50 µM

## Cc1ccc(NC(=O)c2cc(Cl)cc3[nH]ncc23)cc1CN
Zika virus [1]; Zika virus, Vero C1008
  EC50: > 50 µM
Zika virus [1]; Zika virus, Vero C1008, Maximum measured -0.519 %, Minimum measured -6.318 %
  EC90: > 50 µM
Zika virus [2]; Zika virus, VeroE6/TMPRSS2
  EC50: 23.7 µM
Zika virus [2]; Zika virus, VeroE6/TMPRSS2, Baseline response 0 %, Hill slope -0.507, Maximum measured 128.919 %, Maximum response 100 %, Minimum measured 43.47 %, R squared 0.43
  EC90: > 50 µM
Dengue virus type 2 [3]; Dengue virus, Vero C1008
  EC50: 29.2 µM
Dengue virus type 2 [3]; Dengue virus, Vero C1008, Baseline response 0 %, Hill slope -1.708, Maximum measured 106.876 %, Maximum response 100 %, Minimum measured 12.632 %, R squared 0.516
  EC90: > 50 µM
Dengue virus type 2 [4]; VeroE6/TMPRSS2
  EC50: > 50 µM
Dengue virus type 2 [4]; VeroE6/TMPRSS2, Baseline response 0 %, Hill slope -2.664, Maximum measured 202.734 %, Maximum response 169.492 %, Minimum measured 72.11 %, P-gp concentration 2 uM, R squared 0.716, P-gp inhibitor Elacidar
  EC90: > 50 µM

## CC(=O)Nc1cc(Br)cc(C(=O)Nc2ccc3c(c2)CNC3)c1
Zika virus [1]; Zika virus, Vero C1008
  EC50: > 50 µM
Zika virus [1]; Zika virus, Vero C1008, Baseline response 0 %, Hill slope -0.049, Maximum measured 5.994 %, Maximum response 100 %, Minimum measured 2.41 %, R squared 0.015
  EC90: > 50 µM
Zika virus [2]; Baseline response 0 %, Hill slope -0.518, Maximum measured 97.567 %, Maximum response 50 %, Minimum measured 37.703 %, R squared 0.045
  EC90: > 50 µM
Zika virus [2]; Zika virus, VeroE6/TMPRSS2
  EC50: > 50 µM
Zika virus [2]; Zika virus, VeroE6/TMPRSS2, Baseline response 0 %, Hill slope -0.196, Maximum measured 132.114 %, Maximum response 100 %, Minimum measured 61.615 %, R squared 0.024
  EC90: > 50 µM
Dengue virus type 2 [3]; Dengue virus, Vero C1008
  EC50: > 50 µM
Dengue virus type 2 [3]; Dengue virus, Vero C1008, Baseline response 0 %, Hill slope 0.424, Maximum measured 105.264 %, Maximum response 100 %, Minimum measured 74.207 %, R squared 0.146
  EC90: > 50 µM
Dengue virus type 2 [4]; VeroE6/TMPRSS2
  EC50: > 50 µM
Dengue virus type 2 [4]; VeroE6/TMPRSS2, Maximum measured 175.614 %, Minimum measured 132.324 %, P-gp concentration 2 uM, P-gp inhibitor Elacidar
  EC90: > 50 µM

## N#Cc1cc(C(=O)Nc2ccc3c(c2)CNC3)cc(C(F)(F)F)c1
Zika virus [1]; Zika virus, Vero C1008
  EC50: > 50 µM
Zika virus [1]; Zika virus, Vero C1008, Baseline response 0 %, Hill slope 0.826, Maximum measured 10.885 %, Maximum response 100 %, Minimum measured 0.969 %, R squared 0.373
  EC90: > 50 µM
Zika virus [2]; Zika virus, VeroE6/TMPRSS2
  EC50: > 50 µM
Zika virus [2]; Zika virus, VeroE6/TMPRSS2, Maximum measured 132.778 %, Minimum measured 43.807 %
  EC90: > 50 µM
Dengue virus type 2 [3]; Dengue virus, Vero C1008
  EC50: > 50 µM
Dengue virus type 2 [3]; Dengue virus, Vero C1008, Baseline response 0 %, Hill slope 0.474, Maximum measured 101.337 %, Maximum response 100 %, Minimum measured 73.182 %, R squared 0.159
  EC90: > 50 µM
Dengue virus type 2 [4]; VeroE6/TMPRSS2
  EC50: 23.5 µM
Dengue virus type 2 [4]; VeroE6/TMPRSS2, Baseline response 0 %, Hill slope -2.224, Maximum measured 139.741 %, Maximum response 100 %, Minimum measured 16.816 %, P-gp concentration 2 uM, R squared 0.66, P-gp inhibitor Elacidar
  EC90: > 50 µM

## O=C(Nc1cc(Cl)cc(C(=O)Nc2ccc(-n3nn[nH]c3=O)cc2)c1)OCc1ccccc1
Zika virus [1]; Zika virus, Vero C1008
  EC50: > 50 µM
Zika virus [1]; Zika virus, Vero C1008, Baseline response 0 %, Hill slope 1.628, Maximum measured 15.335 %, Maximum response 100 %, Minimum measured -0.05 %, R squared 0.878
  EC90: > 50 µM
Zika virus [2]; Zika virus, VeroE6/TMPRSS2
  EC50: 49.1 µM
Zika virus [2]; Zika virus, VeroE6/TMPRSS2, Baseline response 0 %, Hill slope -16.502, Maximum measured 156.276 %, Maximum response 100 %, Minimum measured 42.402 %, R squared 0.326
  EC90: > 50 µM
Dengue virus type 2 [3]; Baseline response 0 %, EC90 CI (lower) 3.172 uM, EC90 CI (upper) 10.269 uM, Hill slope -8.96, Maximum measured 107.351 %, Maximum response 100 %, Minimum measured 0.837 %, R squared 0.832
  EC90: 9.32 µM
Dengue virus type 2 [3]; Baseline response 0 %, Hill slope -35.644, Maximum measured 130.696 %, Maximum response 100 %, Minimum measured 29.339 %, R squared 0.657
  EC90: > 50 µM
Dengue virus type 2 [3]; vero c1008
  EC50: 7.29 µM and 48.8 µM
Dengue virus type 2 [4]; VeroE6/TMPRSS2
  EC50: 11.4 µM
Dengue virus type 2 [4]; VeroE6/TMPRSS2, Baseline response 0 %, Hill slope -0.45, Maximum measured 123.141 %, Maximum response 100 %, Minimum measured 41.064 %, P-gp concentration 2 uM, R squared 0.456, P-gp inhibitor Elacidar
  EC90: > 16.7 µM

## CCc1cc(C(=O)Nc2cccc(-c3nnn[nH]3)c2)sc1-c1ccc(Cl)cc1
Zika virus [1]; Zika virus, Vero C1008
  EC50: > 50 µM
Zika virus [1]; Zika virus, Vero C1008, Baseline response 0 %, Hill slope -0.614, Maximum measured 5.848 %, Maximum response 100 %, Minimum measured -4.216 %, R squared 0.418
  EC90: > 50 µM
Zika virus [2]; Zika virus, VeroE6/TMPRSS2
  EC50: > 16.7 µM
Zika virus [2]; Zika virus, VeroE6/TMPRSS2, Maximum measured 109.494 %, Minimum measured 75.609 %
  EC90: > 16.7 µM
Dengue virus type 2 [3]; Dengue virus, Vero C1008
  EC50: > 25 µM
Dengue virus type 2 [3]; Dengue virus, Vero C1008, Baseline response 0 %, Hill slope 0.831, Maximum measured 164.159 %, Maximum response 100 %, Minimum measured 71.563 %, R squared 0.225
  EC90: > 25 µM
Dengue virus type 2 [4]; VeroE6/TMPRSS2
  EC50: > 16.7 µM
Dengue virus type 2 [4]; VeroE6/TMPRSS2, Baseline response 0 %, Hill slope -0.101, Maximum measured 96.419 %, Maximum response 100 %, Minimum measured 50.045 %, P-gp concentration 2 uM, R squared 0.073, P-gp inhibitor Elacidar
  EC90: > 16.7 µM
